From the RepoRT retention time repository (doi:10.1021/acs.analchem.2c02893)

test: RP, Thermo Scientific Acclaim RSLC 120 C18, 100 × 2.1 mm, 2.2 µm, 30 °C, 0.2 mL/min, estimated dead time 1.1 min; A: 90% water + 10% methanol + 0.01% formic acid + 5 mM ammonium formate, pH 3.61; B: methanol + 0.01% formic acid + 5 mM ammonium formate, pH 3.61; gradient (min/%B) 0/1 1/1 2/39 13/99.9 15/99.9 15.1/1 20.1/1; settings: stereoisomer not certain

Structure (SMILES)	LC retention time
NC(=O)c1c(Cl)c(Cl)cc(C(=O)O)c1Cl	3.88 min
CC12CCC3c4ccc(O)c(O)c4CCC3C1CCC2=O (stereo not given)	8.69 min
CC12CCC3c4cc(O)c(O)cc4CCC3C1CCC2=O (stereo not given)	8.56 min
CC12CCC3c4ccc(O)cc4CCC3C1CCC2O (stereo not given)	12 min
Cc1cccc(C)c1NC(=O)CS(=O)(=O)O	9.34 min
CCc1c(C(=O)NCCc2ccc(N3CCCCC3)cc2)[nH]c2ccc(Cl)cc12	12.7 min
CCc1cccc(C)c1N(C(=O)C(=O)O)C(C)C(=O)O (stereo not given)	6.84 min
CCc1cccc(C)c1N(C(=O)CS(=O)(=O)O)C(C)C(=O)O (stereo not given)	10.9 min
CCc1cccc(C)c1NC(=O)CS(=O)(=O)O	5.24 min
CCCN(CCOc1c(Cl)cc(Cl)cc1Cl)C(=O)NC=O	11.2 min
CCCNCCOc1c(Cl)cc(Cl)cc1Cl	6.99 min
COC(=O)CSP(=S)(OC)OC	7.16 min
CCOP(=O)(OCC)OC(=CCl)c1ccc(Cl)cc1Cl (mixture of isomers) [Chlorfenvinphos (E/Z) Peak 1 (Main)]	11 min
O=c1cn[nH][nH]1 [1 2 3-triazole-5-OH (1.2.3)]	5.99 min
c1nc[nH]n1 [1,2,4-Triazole]	1.56 min
O=c1[nH]sc2ccccc12 [1,2-Benzisothiazolinone]	5.14 min
Cn1cnc2c1c(=O)n(CCCC(=O)O)c(=O)n2C [1-(3-carboxypropyl)-3,7-dimethylxanthine]	4.48 min
COc1cc(CCN)c(OC)cc1C [2 C-D]	5.34 min
CCCc1cc(OC)c(CCN)cc1OC [2 C-P]	7.46 min
Nc1ccc(S(=O)(=O)O)c(N)c1 [2,4-Diaminobenzenesulfonic acid]	1.36 min
COc1ccc(OC)c(CC(C)N)c1 (stereo not given) [2-5-DMA]	4.78 min
O=Cc1ccccc1Nc1ccccc1Cl [2-(2-(Chlorophenyl)amino)benzaldehyde]	11.4 min
c1ccc2sc(N3CCOCC3)nc2c1 [2-(4-Morpholinyl)benzothiazole]	8.5 min

Structure (SMILES)	LC retention time
C=CC(=O)NC(C)(C)CS(=O)(=O)O [2-Acrylamido-2-methylpropane sulfonic acid (AMPS)]	2.8 min
O=S(=O)(O)c1nc2ccccc2s1 [2-Benzothiazolesulfonic acid]	4.48 min
COc1cc(CCNCc2ccccc2OC)c(OC)cc1Cl [2-C-C-NBoMe]	7.34 min
NC(=O)N1c2ccccc2C=Cc2cc(O)ccc21 [2-Hydroxycarbamazepine]	6.03 min
COc1nc(C)nc(N)n1 [2-Methyl-4-amino-6-methoxy-s-triazine]	3.71 min
c1ccc2sc(SN3CCOCC3)nc2c1 [2-Morpholinothiobenzothiazole]	9.85 min
O=S(=O)(O)c1ccc2ccccc2c1 [2-Naphthalin sulfonic acid]	5.44 min
CCCCCCCCn1sccc1=O [2-Octyl-4-isothiazolin-3-one]	10.3 min
CCN(CC)C(=O)C1C=C2c3cccc4c3C(O)(CC2N(C)C1)C(=O)N4 (stereo not given) [2-Oxo-3-hydroxy-LSD]	4.23 min
CCCCOC(=O)COc1ccc(Cl)cc1Cl [2.4-D-butylester]	11.9 min
COC(=O)COc1ccc(Cl)cc1Cl [2.4-D-methylester]	9.61 min
COC(=O)CCCOc1ccc(Cl)cc1Cl [2.4-DB-methylester]	11.3 min
O=C(O)CCCOc1ccc(Cl)cc1Cl [2.4-DB]	10 min
COC(=O)COc1cc(Cl)c(Cl)cc1Cl [2.4.5-T-methylester]	10.8 min
COc1cc(CCN)c(OC)cc1Br [2C-B]	5.56 min
COc1cc(CCN)c(OC)cc1Cl [2C-C]	5.28 min
CCc1cc(OC)c(CCN)cc1OC [2C-E]	6.48 min
COc1ccc(OC)c(CCN)c1 [2C-H]	4.43 min
COc1cc(CCN)c(OC)cc1I [2C-I]	6.06 min
COc1cc(SC(C)C)c(OC)cc1CCN [2C-T-4]	6.69 min
CCCSc1cc(OC)c(CCN)cc1OC [2C-T-7]	6.98 min
CCSc1cc(OC)c(CCN)cc1OC [2CT-2]	5.88 min
O=C1CC2(CCCCC2)CN1 [3,3-pentamethylene-4-butyrolactam]	6.64 min

Structure (SMILES)	LC retention time
CNC(=O)Nc1ccc(Cl)c(Cl)c1 [3-4-(dichlorophenyl)-3-methyl urea]	8.51 min
NC(=O)Nc1ccc(Cl)c(Cl)c1 [3-4-(dichlorophenyl)-urea]	7.99 min
CCCCNC(=O)OCC#CI [3-Iodopropynyl butylcarbamate]	8.05 min
O=c1[nH]c(Cl)c(Cl)cc1Cl [3.5.6-Trichloro-2-pyridinol]	8.96 min
CCCCCCCCn1sc(Cl)c(Cl)c1=O [4-5-Dichloro-2-n-octyl-isothiazol-3(2H)-on (DCOIT)]	12.5 min
CC(=O)Oc1ccc2c(CCN(C(C)C)C(C)C)c[nH]c2c1 [4-AcO-DIPT]	4.88 min
NC(=O)c1ccc(N)cc1 [4-Aminobenzamide]	2.37 min
CC12CC(O)C3C(CCC4=CC(=O)CCC43C)C1CCC2=O (stereo not drawn) [4-Androsten-11beta-ol-3,17-dione]	8.23 min
O=C(O)CCC(=O)c1ccc(F)cc1 [4-Fluorobenzoylpropionic acid]	6.09 min
Cc1c(C=O)c(=O)n(-c2ccccc2)n1C [4-Formyl-antipyrine]	3.98 min
CCC(=C(c1ccc(O)cc1)c1ccc(OCCN(C)C)cc1)c1ccccc1 [4-Hydroxytamoxifen]	9.1 min
COc1ccc(N)cc1N [4-Methoxy-1.3-phenylenediamine]	2.37 min
CC(=O)Nc1ccc(N)cc1 [4`-Aminoacetanilide]	2.27 min
CC(N)Cc1ccc2[nH]ccc2c1 (stereo not given) [5-(2-Aminopropyl)indole (5-API)]	4.07 min
CC(N)Cc1ccc2occc2c1 (stereo not given) [5-(2-aminopropyl)benzofuran (5-APB)]	4.79 min
Nc1cccc2cc(S(=O)(=O)O)ccc12 [5-Aminonaphthalene-2-sulfonic acid]	3.27 min
c1ccc2c(c1)[nH]c1ccncc12 [5-Carboline]	8.7 min
O=C(O)Cc1c[nH]c2ccc(O)cc12 [5-Hydroxyindole-3-acetic acid]	3.93 min
NC1Cc2ccc(I)cc2C1 (stereo not given) [5-Iodo-2-aminoindane (5-IAI)]	5.87 min
O=C(Nc1cccc2ccccc12)c1nn(CCCCCF)c2ccccc12 [5-fluoro MN-18]	11.8 min
S=c1nc[nH]c2nc[nH]c12 [6-Mercaptopurine]	2.62 min
CC12CCC(=O)C=C1C(O)CC1C2C(O)CC2(C)C1CCC2(O)C(=O)CO (stereo not drawn) [6-beta-Hydroxycortisol]	4.42 min
CN(Cc1nc2c(N)nc(N)nc2[nH]c1=O)c1ccc(C(=O)NC(CCC(=O)O)C(=O)O)cc1 (stereo not given) [7-Hydroxymethotrexat]	4.69 min

Structure (SMILES)	LC retention time
CC12CCC(=O)C=C1CCC1C2C(=O)CC2(C)C(O)CCC12 (stereo not given) [11-Ketotestosterone]	7.9 min
CC(=O)C1(O)CCC2C3CCC4=CC(=O)CCC4(C)C3CCC21C (stereo not drawn) [17alpha-Hydroxyprogesterone]	10 min
COc1cc(CCNCc2ccccc2OC)c(OC)cc1I [25I-NBoMe]	8.03 min
CC12CCC3C(CCC4=CC(=O)CCC43C)C1CCC2=O (stereo not given) [A4 (4-androsten-3 17-dione)]	9.36 min
CC1(C)C(C(=O)c2cn(CCN3CCOCC3)c3ccccc23)C1(C)C [A-796.260]	10.7 min
CC1(C)C(C(=O)c2cn(CC3CCOCC3)c3ccccc23)C1(C)C [A-834.735]	11.4 min
CN1CCCCC1Cn1cc(C(=O)C2C(C)(C)C2(C)C)c2ccccc21 (stereo not given) [AB-005]	8.81 min
CC(C)C(NC(=O)c1nn(CC2CCCCC2)c2ccccc12)C(N)=O (stereo not given) [AB-CHMINACA]	11.3 min
CC(C)C(NC(=O)c1nn(Cc2ccc(F)cc2)c2ccccc12)C(N)=O (stereo not given) [AB-FUBINACA]	9.59 min
CC(C)C(NC(=O)c1nn(CCCCCCl)c2ccccc12)C(N)=O (stereo not given) [AB-PINACA 5Cl]	9.99 min
CC(C)C(NC(=O)c1nn(CCCCCF)c2ccccc12)C(N)=O (stereo not given) [AB-PINACA 5F]	9.12 min
CCCCCn1nc(C(=O)NC(C(N)=O)C(C)C)c2ccccc21 (stereo not given) [AB-PINACA]	10.5 min
CC(C)C(NC(=O)c1cn(CCCCCF)c2ccccc12)C(N)=O (stereo not given) [ABICA-5F]	8.93 min
COC(=O)C(NC(=O)c1nn(CCCCCF)c2ccccc12)C(C)(C)C (stereo not given) [ADB-5F]	11 min
CC(C)(C)C(NC(=O)c1cn(CC2CCCCC2)c2ccccc12)C(N)=O (stereo not given) [ADB-CHMICA]	11.7 min
CC(C)(C)C(NC(=O)c1nn(Cc2ccc(F)cc2)c2ccccc12)C(N)=O (stereo not given) [ADB-FUBINACA]	10.3 min
CC(C)(C)C(NC(=O)c1nn(CCCCCF)c2ccccc12)C(N)=O (stereo not given) [ADB-PINACA-5F]	9.86 min
CCCCCn1nc(C(=O)NC(C(N)=O)C(C)(C)C)c2ccccc21 (stereo not given) [ADB-PINACA]	11.2 min
CC(C)(C)C(NC(=O)c1cn(CCCCCF)c2ccccc12)C(N)=O (stereo not given) [ADBICA-5F]	9.72 min
CCCCCn1cc(C(=O)NC(C(N)=O)C(C)(C)C)c2ccccc21 (stereo not given) [ADBICA]	11.1 min
CCCCCn1nc(C(=O)NC23CC4CC(CC(C4)C2)C3)c2ccccc21 [AKB48 (APINACA)]	14 min
